The values below come from publication PMC9291665, “Discovery and SAR analysis of 5-chloro-4-((substituted phenyl)amino)pyrimidine bearing histone deacetylase inhibitors” (Journal of Enzyme Inhibition and Medicinal Chemistry, 2022).

What is called IC50 is the concentration that inhibits the measured activity by half. A lower IC50 goes with higher potency.

In experiment [1] the test system is Hela nucleus extract containing a mixture of HDAC isoforms. Kind of experiment: HDAC enzyme inhibitory screening against Hela nucleus extract. In kind it is biochemical. The conditions noted are these: at concentration of 1.0 µM, mean of three experiments. The procedure:
The synthesised molecules were firstly screened against Hela nucleus extract containing a mixture of HDAC isoforms.
(§1) All HDAC enzymes were purchased from BPS Bioscience. In short, 60 µL of recombinant HDAC enzyme solution was mixed with various concentrations of test compound (40 µL), and then incubated at 37 °C for 30 minutes. The reaction was terminated by adding 100 µL of imaging agent containing trypsin and trichostatin A (TSA). After standing for 20 min, the fluorescence intensity was measured at the excitation and emission wavelengths of 360 and 460 nm with a microplate reader. The inhibition rate was calculated from the fluorescence intensity readings of the test wells relative to the control wells, and the IC50 curve and value were determined by GraphPad Prism 6.0 software.

Experiment [2] deals with K562 cells. Kind of experiment: Cell apoptosis analysis by flow cytometry (Annexin V-BV421 / 7-AAD). The conditions noted are these: 24 h, control 1.14%.
Method: Cells were incubated with Annexin V-BV421 (Becton Dickinson, USA) and 7-AAD (Becton Dickinson, USA) double labelling for 30 min in the dark at room temperature and measured by flow cytometry (FACSAriaIII, Becton Dickinson, USA). The data was analysed using Flowjo-V10 software.
In experiment [3] the test system is A549. Briefly: In vitro antiproliferative assay (CCK-8), A549. In kind it is cell-based. The conditions noted are these: Homo sapiens, CCK-8, 72 h. The procedure:
(§2) The proliferation of cancer cells was tested by CCK-8 assay. Briefly, cells were seeded in 96-well plate with about 5 × 10^3 cells in each well. The cells were treated with tested compounds after 24 h of incubation. CCK-8 reagent ([…]) was added to each well after 72 h of incubation, and cells were incubated at 37 °C for 4 h. The light absorbance at 450 nm was measured by using an Opsys microplate reader (Dynex Technologies, Chantilly, VA, USA).

The subject of experiment [4] is K562 cells. Briefly: Cell cycle analysis by flow cytometry (PI). The conditions noted are these: 24 h, first peak in Figure 5. (In general: A flow cytometer gives signals particle by particle.)
Method: After treatment, cells were collected and fixed with 70% pre-cold ethanol in PBS and stored at −20 °C overnight. Then washed the cells with PBS twice, and incubated with 100 µg/mL RNase I (Solarbio, China) at 37 °C for 1 h, stained with propidium iodide (PI, 10 µg/mL, Solarbio, China) for 30 min avoid light at room temperature. Finally, DNA content was measured by flow cytometry (FACSAriaIII, Becton Dickinson, USA). The data were analysed and fitted by ModFit software.
The test system of experiment [5] is HepG2. Kind of experiment: In vitro antiproliferative assay (CCK-8), HepG2. Format: cell-based. The conditions noted are these: Homo sapiens, CCK-8, 72 h. The procedure: as §2
Experiment [6] deals with U937. Briefly: In vitro antiproliferative assay (CCK-8), U937. In kind it is cell-based. The conditions noted are these: Homo sapiens, U-937, CCK-8, 72 h. As to the method: as §2
The test system of experiment [7] is Fadu. Briefly: In vitro antiproliferative assay (CCK-8), Fadu. In kind it is cell-based. The conditions noted are these: Homo sapiens, CCK-8, 72 h. The procedure:
as §2

Experiment [8] deals with T1, HDAC1 (Homo sapiens, UniProt Q13547).
T1 construct: purchased BPS Bioscience
T1 sequence (Q13547 whole entry): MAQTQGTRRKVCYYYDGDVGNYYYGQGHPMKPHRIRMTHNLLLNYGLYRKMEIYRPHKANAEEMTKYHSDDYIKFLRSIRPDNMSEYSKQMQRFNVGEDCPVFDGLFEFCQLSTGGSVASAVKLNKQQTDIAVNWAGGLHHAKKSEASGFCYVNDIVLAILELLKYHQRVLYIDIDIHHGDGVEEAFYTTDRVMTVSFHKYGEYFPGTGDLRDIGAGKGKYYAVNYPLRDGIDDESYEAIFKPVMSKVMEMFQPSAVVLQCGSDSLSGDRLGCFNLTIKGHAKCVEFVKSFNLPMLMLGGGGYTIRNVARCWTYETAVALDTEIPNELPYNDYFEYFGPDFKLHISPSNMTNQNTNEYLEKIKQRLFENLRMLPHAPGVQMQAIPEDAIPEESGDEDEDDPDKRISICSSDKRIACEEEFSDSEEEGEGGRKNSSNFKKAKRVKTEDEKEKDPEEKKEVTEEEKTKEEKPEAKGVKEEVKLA
Kind of experiment: HDAC enzyme inhibitory selectivity test, HDAC1. In kind it is biochemical. As to the method:
(§3) Therefore, molecule L20 was evaluated in the HDAC enzyme inhibitory selectivity test against HDAC1, 2, 3 and 6 (Table 2).
as §1

Experiment [9] deals with T2, HDAC2 (Homo sapiens, UniProt Q92769).
T2 construct: purchased BPS Bioscience
T2 sequence (Q92769 whole entry): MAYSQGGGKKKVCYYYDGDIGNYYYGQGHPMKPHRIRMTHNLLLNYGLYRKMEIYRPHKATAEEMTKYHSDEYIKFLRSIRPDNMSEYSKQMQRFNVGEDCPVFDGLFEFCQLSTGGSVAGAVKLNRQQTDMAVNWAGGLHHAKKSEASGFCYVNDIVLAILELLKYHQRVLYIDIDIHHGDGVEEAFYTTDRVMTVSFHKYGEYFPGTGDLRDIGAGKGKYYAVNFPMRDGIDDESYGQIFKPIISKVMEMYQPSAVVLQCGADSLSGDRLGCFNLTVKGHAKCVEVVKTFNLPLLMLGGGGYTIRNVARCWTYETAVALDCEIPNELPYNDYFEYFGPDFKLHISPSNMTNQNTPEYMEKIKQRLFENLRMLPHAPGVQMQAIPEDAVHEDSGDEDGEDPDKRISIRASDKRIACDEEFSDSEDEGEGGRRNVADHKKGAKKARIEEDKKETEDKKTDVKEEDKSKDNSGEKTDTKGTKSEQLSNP
Briefly: HDAC enzyme inhibitory selectivity test, HDAC2. Format: biochemical. As to the method: as §3, §1

Experiment [10] deals with MDA-MB-468. Briefly: In vitro antiproliferative assay (CCK-8), MDA-MB-468. In kind it is cell-based. The conditions noted are these: Homo sapiens, CCK-8, 72 h. The procedure:
(§4) Compound L20 with good performances in both enzyme and K562 cell inhibitory tests were selected for further antiproliferative assay against various cell lines. K562, U266, U937, C6, Fadu, MDA-MB-231, MDA-MB-468, A549, A2780 and HepG2 cell lines were used in the cell-based anticancer evaluation of L20.
(§5) The proliferation of cancer cells was tested by CCK-8 assay. Briefly, cells were seeded in 96-well plate with about 5 × 10^3 cells in each well. The cells were treated with tested compounds after 24 h of incubation. CCK-8 reagent ([…]) was added to each well after 72 h of incubation, and cells were incubated at 37 °C for 4 h. The light absorbance at 450 nm was measured by using an Opsys microplate reader (Dynex Technologies, Chantilly, VA, USA). Results are illustrated as percent of cell viability normalised to DMSO-treated control cells.

Experiment [11] addresses T3, HDAC6 (Homo sapiens, UniProt Q9UBN7).
T3 construct: purchased BPS Bioscience
T3 sequence (Q9UBN7 1-1215): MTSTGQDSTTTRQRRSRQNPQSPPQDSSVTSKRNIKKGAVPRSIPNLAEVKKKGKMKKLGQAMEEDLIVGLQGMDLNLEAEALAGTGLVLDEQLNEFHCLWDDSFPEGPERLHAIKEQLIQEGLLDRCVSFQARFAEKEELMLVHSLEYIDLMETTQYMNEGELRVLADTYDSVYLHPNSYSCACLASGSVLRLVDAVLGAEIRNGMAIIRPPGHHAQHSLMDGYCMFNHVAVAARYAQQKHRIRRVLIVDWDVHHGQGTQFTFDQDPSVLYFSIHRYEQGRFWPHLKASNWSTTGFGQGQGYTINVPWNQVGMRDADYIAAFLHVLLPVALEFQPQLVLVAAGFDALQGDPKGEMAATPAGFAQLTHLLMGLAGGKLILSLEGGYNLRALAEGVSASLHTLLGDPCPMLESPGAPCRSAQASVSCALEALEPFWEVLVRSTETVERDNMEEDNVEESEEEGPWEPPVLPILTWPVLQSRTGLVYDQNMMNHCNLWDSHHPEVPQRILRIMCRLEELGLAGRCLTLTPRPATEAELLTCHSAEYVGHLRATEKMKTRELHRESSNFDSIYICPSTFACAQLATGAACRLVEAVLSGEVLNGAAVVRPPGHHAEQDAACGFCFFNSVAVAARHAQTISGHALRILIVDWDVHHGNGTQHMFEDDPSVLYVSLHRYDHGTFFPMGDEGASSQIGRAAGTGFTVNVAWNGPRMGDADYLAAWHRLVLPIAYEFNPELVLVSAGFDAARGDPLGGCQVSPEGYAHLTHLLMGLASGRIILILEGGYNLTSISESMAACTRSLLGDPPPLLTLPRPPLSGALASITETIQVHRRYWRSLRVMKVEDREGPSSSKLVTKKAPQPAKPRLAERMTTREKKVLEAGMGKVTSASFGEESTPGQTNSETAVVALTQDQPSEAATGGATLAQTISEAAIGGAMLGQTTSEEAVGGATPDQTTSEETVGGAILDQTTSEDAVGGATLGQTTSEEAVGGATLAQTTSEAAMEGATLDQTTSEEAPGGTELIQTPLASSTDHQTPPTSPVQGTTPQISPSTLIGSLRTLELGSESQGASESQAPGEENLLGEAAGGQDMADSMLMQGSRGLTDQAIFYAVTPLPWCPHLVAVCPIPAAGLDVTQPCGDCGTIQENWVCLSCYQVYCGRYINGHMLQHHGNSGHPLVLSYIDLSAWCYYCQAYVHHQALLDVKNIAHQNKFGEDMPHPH
Kind of experiment: HDAC enzyme inhibitory selectivity test, HDAC6. Format: biochemical. The conditions noted are these: mean of three experiments. The procedure:
as §3, §1

The subject of experiment [12] is K562 cells. Briefly: In vitro antiproliferative assay (CCK-8), K562. Format: cell-based. The conditions noted are these: Homo sapiens. The procedure: as §2
Experiment [13] concerns A2780. Briefly: In vitro antiproliferative assay (CCK-8), A2780. Format: cell-based. The conditions noted are these: Homo sapiens, CCK-8, 72 h. As to the method:
as §2

The subject of experiment [14] is U266. Kind of experiment: In vitro antiproliferative assay (CCK-8), U266. Format: cell-based. The conditions noted are these: Homo sapiens, U-266, CCK-8, 72 h. As to the method:
as §2

Experiment [15] deals with MDA-MB-231. Briefly: In vitro antiproliferative assay (CCK-8), MDA-MB-231. Format: cell-based. The conditions noted are these: Homo sapiens, CCK-8, 72 h. The procedure: as §4, §5
The target of experiment [16] is T4, HDAC3 (Homo sapiens, UniProt O15379).
T4 construct: purchased BPS Bioscience
T4 sequence (O15379 whole entry): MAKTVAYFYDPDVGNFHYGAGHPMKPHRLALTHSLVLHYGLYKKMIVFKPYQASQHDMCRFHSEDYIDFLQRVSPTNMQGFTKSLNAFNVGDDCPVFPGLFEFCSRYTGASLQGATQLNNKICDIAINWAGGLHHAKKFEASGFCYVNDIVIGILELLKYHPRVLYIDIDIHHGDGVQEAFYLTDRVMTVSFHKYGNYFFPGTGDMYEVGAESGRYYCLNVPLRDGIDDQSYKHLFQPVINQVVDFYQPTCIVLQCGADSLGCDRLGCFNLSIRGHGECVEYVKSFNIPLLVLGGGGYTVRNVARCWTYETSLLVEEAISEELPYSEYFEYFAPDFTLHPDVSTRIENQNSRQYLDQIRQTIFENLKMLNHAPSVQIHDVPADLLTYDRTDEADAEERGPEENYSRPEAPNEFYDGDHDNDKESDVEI
T4 sequence (Q9Y618 395-489 partner limits assumed): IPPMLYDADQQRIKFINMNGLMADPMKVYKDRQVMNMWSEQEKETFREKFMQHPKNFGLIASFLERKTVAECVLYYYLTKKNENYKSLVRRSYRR
Kind of experiment: HDAC enzyme inhibitory selectivity test, HDAC3. Format: biochemical. The procedure:
as §3, §1

Experiment [17] concerns C6. Kind of experiment: In vitro antiproliferative assay (CCK-8), C6. Format: cell-based. The conditions noted are these: Rattus norvegicus, CCK-8, 72 h. As to the method:
as §2

In the case of `COc1cc(Nc2nc(N3CCN(c4ncc(C(=O)NO)cn4)CC3)ncc2Cl)cc(OC)c1` [Compound L20, 2–(4-(5-chloro-4-((3,5-dimethoxyphenyl)amino)pyrimidin-2-yl)piperazin-1-yl)-N-hydroxypyrimidine-5-carboxamide], in experiment [1], the “HDACs percentage inhibitory rate” value is 72.52 ± 1.26%. Also, the “apoptotic rate of K562 cells” value in [2] (1 µM) came out at 2.51%; in experiment [2] (2 µM), 11.87%; in experiment [2] (4 µM) it was 17.60%. The IC50 was 1.06 ± 0.03 µM in experiment [3]; 3.17 ± 0.15 µM in experiment [5]; 0.76 ± 0.03 µM in experiment [6]; 1.42 ± 0.05 µM in [7]; 0.684 ± 0.016 µM in experiment [8] (mean of three experiments); 2.55 ± 0.079 µM in experiment [9] (mean of three experiments). Besides, the IC50 in experiment [10] is 2.23 ± 0.09 µM; in experiment [11], over 1000 µM; in experiment [12] (CCK-8, 72 h), 0.34 ± 0.02 µM; in experiment [13], 0.97 ± 0.02 µM; in experiment [14], 0.28 ± 0.01 µM; in experiment [15], 1.63 ± 0.06 µM. Further, the IC50 was determined as 0.217 ± 0.008 µM in experiment [16] (mean of three experiments) and 1.98 ± 0.1 µM in experiment [17]. The entries for the “G0/G1 phase ratio of K562 cells” value in experiment [4] (1 µM) and in experiment [4] (2 µM) were 19.34% and 44.85%, respectively. Moreover, in [8] (HDAC1 vs HDAC6), the “selectivity index HDAC1 compared with HDAC6” value is reported as over 1462. Besides, the “selectivity index HDAC2 compared with HDAC6” value in experiment [9] (HDAC2 vs HDAC6) is listed as over 392. Further, the inhibition at 1 µM in experiment [12] (at concentration of 1.0 µM, mean of three experiments, read-out: K562 percentage inhibitory rate) worked out at 74.2 ± 1.18%. The “selectivity index HDAC3 compared with HDAC6” value in [16] (HDAC3 vs HDAC6) is over 4608.
